Results published in patent US20220339178A1, “COMPOSITIONS AND METHODS FOR COGNITIVE PROTECTION OF POLLINATORS AGAINST PESTICIDES” (priority 2019, published 2022).

Test system: Honey bee foragers (Apis mellifera scutellata)
Assay: Sucrose responsiveness (sensory sensitivity) of honey bees: flavonoids vs deltamethrin
Type: in vivo
Conditions: honey bees; rutin 1 μM, kaempferol 131.7 μM or both for one day; 17.81 μM deltamethrin next day; pooled score
Description: Honey bee foragers (Apis mellifera scutellata) were captured from established hives at the Apiary of the Universidad del Rosario (Bogota, Colombia) between 08:00 h and 10:00 h. Bees were ice-anesthetized and harnessed in plastic tubes and maintained under laboratory conditions for the duration of the experiment (three days).
On the first day, bees were randomly allocated to one of four treatments administered as two doses (morning: 20 μL; afternoon:10 μL): i) Control (1M sucrose solution), ii) Rutin 1 μM (Sigma-Aldrich R5143), iii) Kaempferol 131.7 μM (Sigma-Aldrich K0133), iv) Rutin-Kaempferol composition (final concentration of […] rutin and 131.7 μM kaempferol). All solutions were diluted in 1M sucrose solution to the concentrations described above. The next day, bees from each group were randomly assigned to one of two treatments: […] of 1M sucrose solution or 17.81 μM deltamethrin (Dinastia Bayer). Thus, bees belonged to one of eight treatments: i) Sucrose water (Control), ii) Rutin (Rut), iii) Kaempferol (Kaemp), iv) Kaempferol+Rutin (Kaemp+Rut), v) Deltamethrin (Delta), vi) Rutin+Deltamethrin (Rut+Delta), vii) Kaempferol+Deltamethrin (Kaemp+Delta), viii) Kaempferol+Rutin+Deltamethrin ((Kaemp+Rut)+Delta). All solutions were diluted in 1M sugar water to the concentrations described above.
Sensory sensitivity was evaluated using responsiveness to sucrose, a proxy of resource exploitation by foragers. On the second day, bees of the eight treatments described above were tested five times for their response threshold (0 h, 1 h, 2 h, 3 h and 4 h). The first measure (0 h) was done prior to pesticide administration. Bees were tested with an ascending sucrose concentration of 0.1, 0.3, 1, 3, 10 and 30% (w/w). Between each concentration, the bees were presented with pure water as a control for potential sensitization or habituation (Pankiw et al., Behav Ecol Sociobiol (2000) 47:265-267). The inter-trial time between the presentation of each sucrose concentration was at least 4 minutes. For each presentation, the reflexive extension of the proboscis (tongue) of the bee, after antennal stimulation with the solution was recorded. After the last measure (4 h), bees were fed with 10 μL of 1M sucrose solution and maintained until the next day for a final test (24 hours after pesticide administration).
For each bee, a responsiveness score was determined (0-7) 0 h, 1 h, 2 h, 3 h, 4 h and 24 h, and a pooled scored (0-42). Normal distribution of the scores was tested using Shapiro-Wilk W Test for the null hypothesis that data is from a Normal distribution. […] Thus, non-parametric tests were used for comparisons across treatments and for multiple comparisons. Overall changes of responses across different concentrations were evaluated using repeated-measured MANOVA. Error associated with multiple comparisons was controlled using the Two-stage sharpened False Discovery Rate, and corrected p-values (q-values) are presented. Data were explored for outliers using a single run of Robust Fit outliers test. All analyses were conducted using JMP v.14 (SAS Institute Inc.)

With C[C@@H]1O[C@@H](OC[C@H]2O[C@@H](Oc3c(-c4ccc(O)c(O)c4)oc4cc(O)cc(O)c4c3=O)[C@H](O)[C@@H](O)[C@@H]2O)[C@H](O)[C@H](O)[C@H]1O [Rutin] as the compound, how does the “sensitivity (sucrose responsiveness, total PER score) relative to Control bees” value read?
Its value is “not significantly affected”.
